From patent US20060046988A1, “Methoprene formulations for the control of tick infestations” (priority 2004, published 2006)
Where two headings read alike, the source gives them in different places.

System: Rhipicephalus sanguineus
Test: In vitro immersion of engorged female ticks in (S)-methoprene: oviposition, egg mass weight, egg hatch
Conditions: for Eggs Weight: Day 13; for Eggs Hatch (%): 48 days after exposure; for inhibition at 100 ppm / inhibition at 1000 ppm / inhibition at 10000 ppm / inhibition at 100000 ppm: Rhipicephalus sanguineus; for Egg Mass Per Tick / Total Egg Mass / Total Viable Egg Mass / Viable Egg Mass Per Tick / Reduction in Ticks Laying Eggs: replicates combined
Protocol: The effect of (S)-methoprene on oviposition, egg mass weights, and egg eclosion was measured in adult females of a colonized strain of the brown dog tick, Rhipicephalus sanguineus. Approximately fifty R. sanguineus ticks were fed on twelve dogs each. Fully engorged females that dropped from the dogs over a period of two days were collected and combined into replicates. The following replicates were formed: Replicate A-50 ticks, Replicate B-40 ticks, and Replicate C-10 ticks. From each replicate A-C, 5 groups of equal numbers of ticks were formed, each group of ticks having similar combined body weights. Each of the 5 groups of ticks was randomly allocated to a treatment group.
The treatment groups were: Treatment I-Control: acetone/water (40%: 60%); Treatment 2-100 ppm (S)-methoprene dissolved in acetone/water (40:60); Treatment 3-1,000 ppm (S)-methoprene dissolved in acetone/water (40:60); Treatment 4-10,000 ppm (S)-methoprene dissolved in acetone/water (40:60); and Treatment 5-100,000 ppm (S)-methoprene dissolved in acetone/water (40:60). Each group of ticks was immersed in the appropriate test solution for two mins, after which they were removed, dried on a paper towel and placed in a clean container. All ticks in all treatment groups were kept in an environmental chamber maintained at 26-27° Celsius and 65-87% relative humidity. The number of ticks that laid eggs and total egg mass weights for each replicate of each treatment group was recorded 13 days after exposure to treatment. Additionally, an estimation of percentage of egg hatching for each replicate in each treatment group was recorded 48 days after exposure to treatment.
The number of ticks laying eggs, egg mass weights, percentage of eggs that hatched, and weight of viable eggs are provided in Table 1.

[1] = 100 ppm, Replicate A, 10 ticks treated
[2] = 100 ppm, Replicate B, 8 ticks treated
[3] = 100 ppm, Replicate C, 2 ticks treated
[4] = 1,000 ppm, Replicate A, 10 ticks treated
[5] = 1,000 ppm, Replicate B, 8 ticks treated
[6] = 1,000 ppm, Replicate C, 2 ticks treated
[7] = 10,000 ppm, Replicate A, 10 ticks treated
[8] = 10,000 ppm, Replicate B, 8 ticks treated
[9] = 10,000 ppm, Replicate C, 2 ticks treated
[10] = 100,000 ppm, Replicate A, 10 ticks treated
[11] = 100,000 ppm, Replicate B, 8 ticks treated
[12] = 100,000 ppm, Replicate C, 2 ticks treated
[13] = Treatment 3: 1,000 ppm, compared to control
[14] = Treatment 4: 10,000 ppm, compared to control
[15] = Treatment 5: 100,000 ppm, compared to control

With `COC(C)(C)CCC[C@H](C)C/C=C/C(C)=C/C(=O)OC(C)C` [(S)-methoprene] the “Eggs Viable” value [1] was 1.65 g, the “Number of Ticks Laying Eggs (Day 13)” value [1] was 10 and the “Eggs Weight” value [1] was 1.67 g. The “Eggs Hatch (%)” value (100 ppm, Replicate A) was 99%, the “Eggs Viable” value [2] was 1.36 g and the “Number of Ticks Laying Eggs (Day 13)” value [2] was 8. The “Eggs Weight” value [2] was 1.36 g, the “Eggs Hatch (%)” value (100 ppm, Replicate B) was 100% and the “Eggs Viable” value [3] was 0.18 g. The “Number of Ticks Laying Eggs (Day 13)” value [3] was 2, the “Eggs Weight” value [3] was 0.35 g and the “Eggs Hatch (%)” value (100 ppm, Replicate C) was 50%. The “Eggs Viable” value [4] was 0.26 g, the “Number of Ticks Laying Eggs (Day 13)” value [4] was 9 and the “Eggs Weight” value [4] was 1.03 g. The “Eggs Hatch (%)” value (1,000 ppm, Replicate A) was 25%, the “Eggs Viable” value [5] was 0.29 g and the “Number of Ticks Laying Eggs (Day 13)” value [5] was 8. The “Eggs Weight” value [5] was 0.95 g, the “Eggs Hatch (%)” value (1,000 ppm, Replicate B) was 30% and the “Eggs Viable” value [6] was 0.10 g. The “Number of Ticks Laying Eggs (Day 13)” value [6] was 2, the “Eggs Weight” value [6] was 0.28 g and the “Eggs Hatch (%)” value (1,000 ppm, Replicate C) was 35%. For the same compound, the “Eggs Viable” value [7] was 0 g, the “Number of Ticks Laying Eggs (Day 13)” value [7] was 10 and the “Eggs Weight” value [7] was 0.97 g. The “Eggs Hatch (%)” value (10,000 ppm, Replicate A) was 0%, the “Eggs Viable” value [8] was 0 g and the “Number of Ticks Laying Eggs (Day 13)” value [8] was 8. The “Eggs Weight” value [8] was 0.57 g, the “Eggs Hatch (%)” value (10,000 ppm, Replicate B) was 0% and the “Eggs Viable” value [9] was 0 g. The “Number of Ticks Laying Eggs (Day 13)” value [9] was 2, the “Eggs Weight” value [9] was 0.14 g and the “Eggs Hatch (%)” value (10,000 ppm, Replicate C) was 0%. For the same compound, the “Eggs Viable” value [10] was 0 g, the “Number of Ticks Laying Eggs (Day 13)” value [10] was 8 and the “Eggs Weight” value [10] was 0.59 g. For the same compound, the “Eggs Hatch (%)” value (100,000 ppm, Replicate A) was 0%, the “Eggs Viable” value [11] was 0 g and the “Number of Ticks Laying Eggs (Day 13)” value [11] was 8. For the same compound, the “Eggs Weight” value [11] was 0.39 g, the “Eggs Hatch (%)” value (100,000 ppm, Replicate B) was 0% and the “Eggs Viable” value [12] was 0 g. The “Number of Ticks Laying Eggs (Day 13)” value [12] was 2, the “Eggs Weight” value [12] was 0.05 g and the “Eggs Hatch (%)” value (100,000 ppm, Replicate C) was 0%. The inhibition at 100 ppm (Treatment 2: 100 ppm, compared to control, read-out: Reduction Viable Egg Mass Per Tick) was 0%, the inhibition at 100 ppm (Treatment 2: 100 ppm, compared to control, read-out: Reduction in Viable Egg Mass) was 0% and the inhibition at 1000 ppm (Treatment 3: 1,000 ppm, compared to control, read-out: Reduction Viable Egg Mass Per Tick) was 78%. For the same compound, the inhibition at 1000 ppm (Treatment 3: 1,000 ppm, compared to control, read-out: Reduction in Viable Egg Mass) was 79%, the inhibition at 10000 ppm (Treatment 4: 10,000 ppm, compared to control, read-out: Reduction Viable Egg Mass Per Tick) was 100% and the inhibition at 10000 ppm (Treatment 4: 10,000 ppm, compared to control, read-out: Reduction in Viable Egg Mass) was 100%. For the same compound, the inhibition at 100000 ppm (Treatment 5: 100,000 ppm, compared to control, read-out: Reduction Viable Egg Mass Per Tick) was 100%, the inhibition at 100000 ppm (Treatment 5: 100,000 ppm, compared to control, read-out: Reduction in Viable Egg Mass) was 100% and the “Egg Mass Per Tick” value (Treatment 2: 100 ppm) was 0.169 g. The “Total Egg Mass” value (Treatment 2: 100 ppm) was 3.38 g, the “Total Viable Egg Mass” value (Treatment 2: 100 ppm) was 3.19 g and the “Viable Egg Mass Per Tick” value (Treatment 2: 100 ppm) was 0.160 g. The “Reduction in Ticks Laying Eggs” value (Treatment 2: 100 ppm, compared to control) was 0%, the “Egg Mass Per Tick Reduction” value [13] was 28% and the “Reduction of Total Egg Mass” value [13] was 32%. The “Egg Mass Per Tick” value (Treatment 3: 1,000 ppm) was 0.119 g, the “Total Egg Mass” value (Treatment 3: 1,000 ppm) was 2.26 g and the “Total Viable Egg Mass” value (Treatment 3: 1,000 ppm) was 0.65 g. The “Viable Egg Mass Per Tick” value (Treatment 3: 1,000 ppm) was 0.034 g, the “Reduction in Ticks Laying Eggs” value [13] was 5% and the “Egg Mass Per Tick Reduction” value [14] was 49%. For the same compound, the “Reduction Viable Egg Mass Per Tick” value [14] was 100%, the “Reduction of Total Egg Mass” value [14] was 49% and the “Egg Mass Per Tick” value (Treatment 4: 10,000 ppm) was 0.084 g. The “Total Egg Mass” value (Treatment 4: 10,000 ppm) was 1.68 g, the “Total Viable Egg Mass” value (Treatment 4: 10,000 ppm) was 0 g and the “Viable Egg Mass Per Tick” value (Treatment 4: 10,000 ppm) was 0 g. The “Reduction in Ticks Laying Eggs” value [14] was 0%, the “Egg Mass Per Tick Reduction” value [15] was 65% and the “Reduction in Viable Egg Mass” value [15] was 100%. For the same compound, the “Reduction of Total Egg Mass” value [15] was 69%, the “Egg Mass Per Tick” value (Treatment 5: 100,000 ppm) was 0.057 g and the “Total Egg Mass” value (Treatment 5: 100,000 ppm) was 1.03 g. The “Total Viable Egg Mass” value (Treatment 5: 100,000 ppm) was 0 g, the “Viable Egg Mass Per Tick” value (Treatment 5: 100,000 ppm) was 0 g and the “Reduction in Ticks Laying Eggs” value [15] was 10%.
